Experimental data reported in ChEMBL document CHEMBL4342492, “Optimization of Small Molecules That Sensitize HIV-1 Infected Cells to Antibody-Dependent Cellular Cytotoxicity” (ACS Med Chem Lett, 2020).
The source made the active and inactive calls. The rule behind the calls is not given here.

Experiments:
[1] = target: Envelope glycoprotein gp160 (Human immunodeficiency virus 1) (UniProt Q6QLK5); experiment: Binding affinity to HIV1JRFL envelope glycoprotein expressed in human HOS cells assessed as fold change in binding to CoRBS 17b incubated for 1 hrs by cell based ELISA relative to BNM-III-170; details: JRFL
Envelope glycoprotein gp160 (Human immunodeficiency virus 1), sequence (Q6QLK5 1-814): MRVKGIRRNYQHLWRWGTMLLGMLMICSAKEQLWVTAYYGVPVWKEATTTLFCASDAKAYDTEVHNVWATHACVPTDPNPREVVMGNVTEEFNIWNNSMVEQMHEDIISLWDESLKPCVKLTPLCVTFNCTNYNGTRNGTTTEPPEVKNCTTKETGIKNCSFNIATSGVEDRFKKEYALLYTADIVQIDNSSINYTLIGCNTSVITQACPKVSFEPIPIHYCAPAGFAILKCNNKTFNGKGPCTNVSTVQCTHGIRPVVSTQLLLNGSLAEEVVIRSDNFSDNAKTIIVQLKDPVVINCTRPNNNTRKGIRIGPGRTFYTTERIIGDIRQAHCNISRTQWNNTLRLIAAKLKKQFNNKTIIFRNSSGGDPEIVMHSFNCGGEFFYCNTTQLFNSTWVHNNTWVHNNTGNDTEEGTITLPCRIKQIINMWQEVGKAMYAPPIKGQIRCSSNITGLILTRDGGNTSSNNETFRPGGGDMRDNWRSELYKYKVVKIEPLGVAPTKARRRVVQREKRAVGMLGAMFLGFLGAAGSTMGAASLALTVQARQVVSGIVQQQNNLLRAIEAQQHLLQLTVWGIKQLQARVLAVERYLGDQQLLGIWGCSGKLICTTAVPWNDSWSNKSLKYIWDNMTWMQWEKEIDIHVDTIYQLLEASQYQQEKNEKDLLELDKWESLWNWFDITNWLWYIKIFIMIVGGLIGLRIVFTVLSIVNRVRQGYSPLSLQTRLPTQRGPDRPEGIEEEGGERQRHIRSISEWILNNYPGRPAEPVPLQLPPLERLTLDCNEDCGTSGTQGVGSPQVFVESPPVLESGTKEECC

[2] = target: Envelope glycoprotein gp160 (Human immunodeficiency virus 1, UniProt Q6QLK5); experiment: Binding affinity to HIV1 YU-2 gp120 by isothermal titration calorimetric analysis
Envelope glycoprotein gp160, sequence (Q6QLK5 whole entry): as the sequence (Q6QLK5 1-814) above

[3] = system: Human immunodeficiency virus 1; experiment: Induction of sensitization to HIV-1CH58TF infected in CD4-positive T cells assessed as […] cellular cytotoxicity at 50 uM incubated for 4 to 6 hrs by AquaVivid/eFluor670 staining based by flow cytometric analysis; assay type: functional, organism-based

SMILES | fold change (FC) [1] | Kd [2] [nM] | Activity [3]
O=C(Nc1ccc(Cl)c(F)c1)[C@H]1CCCN(S(=O)(=O)c2ccccc2)C1 | 0.45 |  | 
NCCCNC(=O)N1C[C@H](N)C[C@H](C(=O)Nc2ccc(Cl)c(F)c2)C1 | 0.06 |  | 
COC(=O)N1CCC[C@H](C(=O)Nc2ccc(Cl)c(F)c2)C1 | 0.5 | 1800 | Active
CS(=O)(=O)N1CCC(C(=O)Nc2ccc(Cl)c(F)c2)C1 (racemic) | 0.36 |  | 
CS(=O)(=O)N1CCNC(C(=O)Nc2ccc(Cl)c(F)c2)C1 (racemic) | 0.1 |  | 
CS(=O)(=O)N1CCC[C@H](C(=O)Nc2ccc(Cl)c(F)c2)C1 | 0.58 | 2800 | Active
O=C(Nc1ccc(Cl)c(F)c1)[C@@H]1CCCOC1 | 0.28 |  | 
CS(=O)(=O)N1CCC[C@H](C(=O)Nc2ccc(Br)cc2)C1 | 0.36 |  | 
CCS(=O)(=O)N1CCCC(C(=O)Nc2ccc(Cl)c(F)c2)C1 (racemic) | 0.42 |  | 
CS(=O)(=O)N1CCC[C@H](C(=O)Nc2ccc(Cl)cc2)C1 | 0.31 | > 10000 | 
NCCOC(=O)N1C[C@H](N)C[C@H](C(=O)Nc2ccc(Cl)c(F)c2)C1 | 0.07 |  | 
CS(=O)(=O)N1CCC[C@@H](C(=O)Nc2ccc(Cl)cc2)C1 | 0.08 |  | 
CS(=O)(=O)N1CCC[C@H](C(=O)Oc2ccc(Cl)c(F)c2)C1 | 0.07 |  | 
CCCNC(=O)N1CCC[C@H](C(=O)Nc2ccc(Cl)c(F)c2)C1 | 0.55 |  | Active
CCOC(=O)N1CCC[C@H](C(=O)Nc2ccc(Cl)c(F)c2)C1 | 0.53 | 770 | Active
CCCNC(=N)N1CCC[C@H](C(=O)Nc2ccc(Cl)c(F)c2)C1 | 0.85 |  | 
O=C(Nc1ccc(Cl)c(F)c1)[C@H]1CCCOC1 | 0.58 |  | 
CS(=O)(=O)N1CCCC(NC(=O)c2ccc(Cl)c(F)c2)C1 (racemic) | 0.08 |  | 
CCS(=O)(=O)N1CCC[C@H](C(=O)Nc2ccc(Cl)c(F)c2)C1 | 0.35 |  | 
CS(=O)(=O)N1CC(C(=O)Nc2ccc(Cl)c(F)c2)Cc2ccccc21 (racemic) | 0.24 |  | 
NCCNC(=O)N1CCC[C@H](C(=O)Nc2ccc(Cl)c(F)c2)C1 | 0.58 |  | Active
CCCNC(=O)N1C[C@H](N)C[C@H](C(=O)Nc2ccc(Cl)c(F)c2)C1 | 0.11 |  | 
CC(C)COC(=O)N1CCC[C@H](C(=O)Nc2ccc(Cl)c(F)c2)C1 | 0.62 |  | 
NCCCNC(=O)N1CCC[C@H](C(=O)Nc2ccc(Cl)c(F)c2)C1 | 0.25 |  | 
CCCOC(=O)N1CCC[C@H](C(=O)Nc2ccc(Cl)c(F)c2)C1 | 0.51 |  | 
NCCNC(=O)N1C[C@H](N)C[C@H](C(=O)Nc2ccc(Cl)c(F)c2)C1 | 0.06 |  | 
CS(=O)(=O)N1CCOC(C(=O)Nc2ccc(Cl)c(F)c2)C1 (racemic) | 0.28 |  | 
CS(=O)(=O)N1CCC(C(=O)Nc2ccc(Cl)c(F)c2)CC1 | 0.21 |  | 
O=C(Nc1ccc(Cl)c(F)c1)C1CCCOC1 (racemic) | 0.48 |  | 
